Paper PMC9005681, “Use of AD Informer Set compounds to explore validity of novel targets in Alzheimer's disease pathology” (Alzheimer's & Dementia : Translational Research & Clinical …, 2022)

Experiments:
Assay in all cases: PDSP GPCR panel primary binding assays at 10 μM
[1] = biological target: T1, cloned human or rodent CNS receptors, channels, and transporters (PDSP panel) (Homo sapiens, UniProt P35367); details: Receptor H1, primary assay, 10 μM
T1 construct: expressed in transfected cells
T1 sequence (P35367 whole entry): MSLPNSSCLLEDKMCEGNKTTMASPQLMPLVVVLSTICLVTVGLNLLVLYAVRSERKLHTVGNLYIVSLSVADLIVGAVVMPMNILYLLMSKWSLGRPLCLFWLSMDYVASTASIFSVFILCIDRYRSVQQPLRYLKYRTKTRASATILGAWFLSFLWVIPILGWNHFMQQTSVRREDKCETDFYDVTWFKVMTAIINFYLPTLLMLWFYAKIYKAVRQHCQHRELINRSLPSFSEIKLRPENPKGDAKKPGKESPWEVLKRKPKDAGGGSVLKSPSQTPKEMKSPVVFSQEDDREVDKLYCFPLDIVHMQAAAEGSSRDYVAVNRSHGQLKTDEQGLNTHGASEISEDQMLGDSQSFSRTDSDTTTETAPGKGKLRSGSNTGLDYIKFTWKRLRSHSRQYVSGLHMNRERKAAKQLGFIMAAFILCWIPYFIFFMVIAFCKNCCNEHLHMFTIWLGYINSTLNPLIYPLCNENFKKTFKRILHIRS
In short: (§1)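 Radioligand displacement at cloned human or rodent CNS targets: 46–47 primary binding assays run in quadruplicate at 10 μM. Targets where the compound displaced an average of >50% of radiolabeled standard ligand went to secondary binding in 11-point dose-response, in triplicate; none run for H3, PBR or GABAA.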

[2] = biological target: T2, cloned human or rodent CNS receptors, channels, and transporters (PDSP panel) (Homo sapiens, UniProt P08912); details: Receptor M5, primary assay, 10 μM
T2 construct: expressed in transfected cells
T2 sequence (P08912 1-532): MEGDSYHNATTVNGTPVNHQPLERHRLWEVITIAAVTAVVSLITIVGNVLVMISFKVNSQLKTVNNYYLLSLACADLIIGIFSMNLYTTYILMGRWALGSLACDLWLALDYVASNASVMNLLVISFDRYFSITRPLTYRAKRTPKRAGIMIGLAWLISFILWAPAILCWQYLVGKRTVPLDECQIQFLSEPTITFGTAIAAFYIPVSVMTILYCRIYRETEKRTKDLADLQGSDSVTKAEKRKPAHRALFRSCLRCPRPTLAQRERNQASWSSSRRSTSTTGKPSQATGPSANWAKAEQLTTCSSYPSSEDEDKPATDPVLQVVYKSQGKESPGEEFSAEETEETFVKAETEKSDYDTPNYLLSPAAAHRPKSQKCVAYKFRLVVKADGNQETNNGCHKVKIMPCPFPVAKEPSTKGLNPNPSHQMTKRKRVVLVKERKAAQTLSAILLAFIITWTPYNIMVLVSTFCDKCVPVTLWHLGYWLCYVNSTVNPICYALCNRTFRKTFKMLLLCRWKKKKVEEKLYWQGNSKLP
In short: as §1

[3] = biological target: T3, cloned human or rodent CNS receptors, channels, and transporters (PDSP panel) (Homo sapiens, UniProt P20309); details: Receptor M3, primary assay, 10 μM
T3 construct: expressed in transfected cells
T3 sequence (P20309 whole entry): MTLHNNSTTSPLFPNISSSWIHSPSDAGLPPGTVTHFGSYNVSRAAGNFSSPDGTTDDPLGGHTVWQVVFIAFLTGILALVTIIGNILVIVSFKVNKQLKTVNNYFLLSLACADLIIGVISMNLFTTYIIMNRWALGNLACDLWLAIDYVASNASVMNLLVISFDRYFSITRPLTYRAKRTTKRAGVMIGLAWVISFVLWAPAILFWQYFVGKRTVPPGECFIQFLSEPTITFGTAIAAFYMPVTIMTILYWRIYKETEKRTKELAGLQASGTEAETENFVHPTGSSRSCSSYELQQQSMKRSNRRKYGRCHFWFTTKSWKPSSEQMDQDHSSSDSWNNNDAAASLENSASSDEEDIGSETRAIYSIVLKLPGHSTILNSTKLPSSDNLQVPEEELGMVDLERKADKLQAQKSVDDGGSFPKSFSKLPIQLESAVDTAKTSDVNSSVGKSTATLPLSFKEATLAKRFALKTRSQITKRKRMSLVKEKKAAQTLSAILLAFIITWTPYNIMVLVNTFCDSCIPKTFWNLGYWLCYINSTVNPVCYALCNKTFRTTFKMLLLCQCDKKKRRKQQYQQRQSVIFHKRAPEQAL
In short: as §1

[4] = biological target: T4, cloned human or rodent CNS receptors, channels, and transporters (PDSP panel) (Homo sapiens, UniProt P35372); details: Receptor MOR, primary assay, 10 μM
T4 construct: expressed in transfected cells
T4 sequence (P35372 whole entry): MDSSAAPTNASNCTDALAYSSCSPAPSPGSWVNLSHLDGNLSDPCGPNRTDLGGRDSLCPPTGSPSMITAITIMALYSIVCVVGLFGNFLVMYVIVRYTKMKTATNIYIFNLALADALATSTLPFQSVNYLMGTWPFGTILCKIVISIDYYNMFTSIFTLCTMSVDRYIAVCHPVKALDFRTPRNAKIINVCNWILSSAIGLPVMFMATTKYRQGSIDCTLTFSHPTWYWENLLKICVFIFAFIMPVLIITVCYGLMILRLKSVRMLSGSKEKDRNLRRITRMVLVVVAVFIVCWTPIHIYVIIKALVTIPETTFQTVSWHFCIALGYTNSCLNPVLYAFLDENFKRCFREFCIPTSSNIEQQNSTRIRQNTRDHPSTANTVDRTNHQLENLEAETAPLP
In short: as §1

[5] = tested on: cloned human or rodent CNS receptors, channels, and transporters (PDSP panel); details: 10 μM; for Inhibition 1 / Inhibition 2 / Inhibition 3 / Inhibition 4 / Mean %: primary assay; for Mean %: mean of Inhibition 1-4
In short: as §1

[6] = biological target: T5, cloned human or rodent CNS receptors, channels, and transporters (PDSP panel) (Homo sapiens, UniProt P14416); details: Receptor D2, primary assay, 10 μM
T5 construct: expressed in transfected cells
T5 sequence (P14416 whole entry): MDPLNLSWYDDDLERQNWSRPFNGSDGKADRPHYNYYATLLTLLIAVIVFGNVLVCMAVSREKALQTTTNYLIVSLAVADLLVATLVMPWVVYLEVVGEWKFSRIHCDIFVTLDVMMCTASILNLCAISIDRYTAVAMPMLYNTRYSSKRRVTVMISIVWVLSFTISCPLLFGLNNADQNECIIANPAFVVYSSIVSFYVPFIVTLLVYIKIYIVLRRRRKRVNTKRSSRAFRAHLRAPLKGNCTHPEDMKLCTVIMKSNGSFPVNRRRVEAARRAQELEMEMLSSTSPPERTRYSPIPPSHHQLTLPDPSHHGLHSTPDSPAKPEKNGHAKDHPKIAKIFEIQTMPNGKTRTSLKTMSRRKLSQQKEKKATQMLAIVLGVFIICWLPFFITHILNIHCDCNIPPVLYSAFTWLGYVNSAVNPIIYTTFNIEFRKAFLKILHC
In short: as §1

[7] = biological target: T6, cloned human or rodent CNS receptors, channels, and transporters (PDSP panel) (Homo sapiens, UniProt Q01959); details: Receptor DAT, primary assay, 10 μM
T6 construct: expressed in transfected cells
T6 sequence (Q01959 whole entry): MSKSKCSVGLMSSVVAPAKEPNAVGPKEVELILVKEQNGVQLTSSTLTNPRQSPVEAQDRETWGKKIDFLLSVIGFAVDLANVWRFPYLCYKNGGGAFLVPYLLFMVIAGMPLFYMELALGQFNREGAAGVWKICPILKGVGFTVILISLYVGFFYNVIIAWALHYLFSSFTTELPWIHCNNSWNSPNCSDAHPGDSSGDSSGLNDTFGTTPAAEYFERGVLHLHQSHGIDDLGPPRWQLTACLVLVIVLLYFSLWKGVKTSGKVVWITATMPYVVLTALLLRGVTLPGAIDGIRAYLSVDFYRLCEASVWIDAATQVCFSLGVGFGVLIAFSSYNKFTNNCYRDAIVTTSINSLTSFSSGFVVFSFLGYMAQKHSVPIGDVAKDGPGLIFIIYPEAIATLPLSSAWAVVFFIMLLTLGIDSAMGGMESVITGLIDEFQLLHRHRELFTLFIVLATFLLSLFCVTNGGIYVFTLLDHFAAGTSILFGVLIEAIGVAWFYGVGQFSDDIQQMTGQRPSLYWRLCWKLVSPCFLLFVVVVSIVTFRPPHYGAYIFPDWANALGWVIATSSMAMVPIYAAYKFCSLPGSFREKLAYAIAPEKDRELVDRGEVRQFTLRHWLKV
In short: as §1

[8] = biological target: T7, cloned human or rodent CNS receptors, channels, and transporters (PDSP panel) (Homo sapiens, UniProt P28566); details: Receptor 5-HT1E, primary assay, 10 μM
T7 construct: expressed in transfected cells
T7 sequence (P28566 whole entry): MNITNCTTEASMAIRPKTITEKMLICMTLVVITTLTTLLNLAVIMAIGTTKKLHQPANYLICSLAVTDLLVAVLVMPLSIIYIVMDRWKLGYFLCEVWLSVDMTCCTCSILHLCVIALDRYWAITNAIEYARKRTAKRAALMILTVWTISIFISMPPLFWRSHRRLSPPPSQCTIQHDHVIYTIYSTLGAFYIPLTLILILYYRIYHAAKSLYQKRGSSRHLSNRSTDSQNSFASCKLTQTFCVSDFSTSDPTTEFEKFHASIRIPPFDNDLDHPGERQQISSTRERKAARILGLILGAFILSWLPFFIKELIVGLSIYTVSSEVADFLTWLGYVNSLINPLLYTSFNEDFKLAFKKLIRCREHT
In short: as §1

CCCCNc1ncc2c(-c3ccc(CN4CCN(C)CC4)cc3)cn([C@H]3CC[C@H](O)CC3)c2n1 [UNC2025C, UNC2025]
Inhibition 1 [1]: 34.93% | Inhibition 2 [1]: 33.32% | Inhibition 3 [1]: 29.49% | Inhibition 4 [1]: 24.93% | Mean % ([1]; mean of Inhibition 1-4): 30.67% | Inhibition 1 [2]: 16.16% | Inhibition 2 [2]: 21.19% | Inhibition 3 [2]: 19.69% | Inhibition 4 [2]: 10.93% | Mean % ([2]; mean of Inhibition 1-4): 16.99% | Inhibition 1 [3]: -7.29% | Inhibition 2 [3]: -5.9% | Inhibition 3 [3]: -6.87% | Inhibition 4 [3]: 2.81% | Mean % ([3]; mean of Inhibition 1-4): -4.31% | Inhibition 1 [4]: 9.74% | Inhibition 2 [4]: 12.91% | Inhibition 3 [4]: 2.36% | Inhibition 4 [4]: 6.67% | Mean % ([4]; mean of Inhibition 1-4): 7.92% | Affinity for receptors in primary assays ([5]; 46-47 primary binding assays): possessed affinity for the most receptors in primary assays | Inhibition 1 ([5]; Receptor Alpha1A): 55.27% | Inhibition 2 ([5]; Receptor Alpha1A): 34.14% | Inhibition 3 ([5]; Receptor Alpha1A): 47.98% | Inhibition 4 ([5]; Receptor Alpha1A): 43.68% | Mean % ([5]; Receptor Alpha1A): 45.27% | Inhibition 1 ([5]; Receptor Alpha2A): 41.44% | Inhibition 2 ([5]; Receptor Alpha2A): 35.02% | Inhibition 3 ([5]; Receptor Alpha2A): 40.8% | Inhibition 4 ([5]; Receptor Alpha2A): 38.73% | Mean % ([5]; Receptor Alpha2A): 39% | Inhibition 1 ([5]; Receptor Alpha2C): 51.96% | Inhibition 2 ([5]; Receptor Alpha2C): 38.52% | Inhibition 3 ([5]; Receptor Alpha2C): 26.65% | Inhibition 4 ([5]; Receptor Alpha2C): 27.54% | Mean % ([5]; Receptor Alpha2C): 36.17% | Inhibition 1 ([5]; Receptor BZP Rat Brain Site): -0.21% | Inhibition 2 ([5]; Receptor BZP Rat Brain Site): 6.71% | Inhibition 3 ([5]; Receptor BZP Rat Brain Site): 5.47% | Inhibition 4 ([5]; Receptor BZP Rat Brain Site): 13.44% | Mean % ([5]; Receptor BZP Rat Brain Site): 6.35% | Inhibition 1 ([5]; Receptor DOR): -5.58% | Inhibition 2 ([5]; Receptor DOR): -6.66% | Inhibition 3 ([5]; Receptor DOR): -9.56% | Inhibition 4 ([5]; Receptor DOR): 1.65% | Mean % ([5]; Receptor DOR): -5.04% | Inhibition 1 ([5]; Receptor H3): 93.48% | Inhibition 2 ([5]; Receptor H3): 95.52% | Inhibition 3 ([5]; Receptor H3): 93.48% | Inhibition 4 ([5]; Receptor H3): 100.47% | Mean % ([5]; Receptor H3): 95.74% | Inhibition 1 ([5]; Receptor H4): 42.06% | Inhibition 2 ([5]; Receptor H4): 42.3% | Inhibition 3 ([5]; Receptor H4): 60.79% | Inhibition 4 ([5]; Receptor H4): 92.47% | Mean % ([5]; Receptor H4): 59.41% | Inhibition 1 ([5]; Receptor Sigma 1): 4.46% | Inhibition 2 ([5]; Receptor Sigma 1): 61.96% | Inhibition 3 ([5]; Receptor Sigma 1): 35.63% | Inhibition 4 ([5]; Receptor Sigma 1): 46.38% | Mean % ([5]; Receptor Sigma 1): 37.11% | Inhibition 1 ([5]; Receptor Sigma 2): 97.53% | Inhibition 2 ([5]; Receptor Sigma 2): 96.04% | Inhibition 3 ([5]; Receptor Sigma 2): 97.25% | Inhibition 4 ([5]; Receptor Sigma 2): 98.03% | Mean % ([5]; Receptor Sigma 2): 97.21% | Inhibition 1 [6]: 11.9% | Inhibition 2 [6]: -4.63% | Inhibition 3 [6]: 2.76% | Inhibition 4 [6]: -1.81% | Mean % ([6]; mean of Inhibition 1-4): 2.06% | Inhibition 1 [7]: 56.29% | Inhibition 2 [7]: 47.54% | Inhibition 3 [7]: 58.45% | Inhibition 4 [7]: 64.82% | Mean % ([7]; mean of Inhibition 1-4): 56.78% | Inhibition 1 [8]: 4.71% | Inhibition 2 [8]: -8.74% | Inhibition 3 [8]: 0.13% | Inhibition 4 [8]: -9.18% | Mean % ([8]; mean of Inhibition 1-4): -3.27%
